Laboratory results from patent US11071788B2, “Antibody drug conjugates of kinesin spindel protein (KSP) inhibitors with antiB7H3-antibodies” (BAYER PHARMA AKTIENGESELLSCHAFT, priority 2015, dated 2021).

Key:
KPL4 = experiment: Cytotoxicity MTT assay, KPL4; type: cell-based
From the text: (§1) Table 2 below lists the IC50 values of representative working examples from the assay described and the corresponding cytotoxicity data (MTT assay).

NCI-H292 = experiment: Cytotoxicity MTT assay, NCI-H292; type: cell-based, human
From the text: as §1

[1] = Cell permeability flux assay using Caco-2 cells; type: in vitro ADME; conditions: human; Caco-2, 2 hours incubation
Caco-2 cells = experiment: Cell permeability flux assay using Caco-2 cells; type: in vitro ADME; conditions: for Papp (B-A): Caco-2, 2 hours incubation; for Efflux ratio: ratio of Papp (B-A) to Papp (A-B), Caco-2
[2] = target: motor domain of the human kinesin spindle protein KSP/Eg5 (Homo sapiens (Human), UniProt P52732); experiment: Inhibition of the kinesin spindle protein KSP/Eg5 (ATPase, malachite green); type: biochemical; conditions: 10 nM KSP motor domain, microtubuli, 500 μM ATP, 2 h RT
Sequence of motor domain of the human kinesin spindle protein KSP/Eg5 (P52732 18-359): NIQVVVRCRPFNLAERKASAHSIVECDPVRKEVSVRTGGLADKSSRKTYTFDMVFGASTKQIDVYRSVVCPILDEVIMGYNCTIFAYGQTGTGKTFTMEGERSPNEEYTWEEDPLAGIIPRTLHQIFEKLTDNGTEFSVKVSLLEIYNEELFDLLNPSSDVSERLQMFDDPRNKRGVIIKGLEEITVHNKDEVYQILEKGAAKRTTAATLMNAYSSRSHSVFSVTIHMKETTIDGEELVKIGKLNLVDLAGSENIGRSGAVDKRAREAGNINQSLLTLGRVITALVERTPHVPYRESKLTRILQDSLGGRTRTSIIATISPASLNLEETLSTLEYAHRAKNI
Protocol: The motor domain of the human kinesin spindle protein KSP/Eg5 (tebu-bio/Cytoskeleton Inc, No. 027EG01-XL) was incubated in a concentration of 10 nM with microtubuli (bovine or porcine, tebu-bio/Cytoskeleton Inc) stabilized with 50 μg/ml taxol (Sigma No. T7191-5MG) for 5 min at RT in 15 mM PIPES, pH 6.8 (5 mM MgCl2 and 10 mM DTT, Sigma). […] Incubation was at RT for 2 h. ATPase activity was detected by detecting the inorganic phosphate formed using malachite green (Biomol). […] The positive controls used were monastrol (Sigma, M8515-1 mg) and ispinesib (AdooQ Bioscience A10486). The individual data of the dose-activity curve are eight-fold determinations. The IC50 values are means of two independent experiments.

[3] = system: MCF-7: human breast cancer cells, B7H3-positive; experiment: CTG cytotoxicity assay of anti-B7H3 ADCs, MCF-7; type: cell-based; conditions: MCF7, 72 h incubation, growth inhibition vs day 0
Protocol: The cells were cultivated according to the standard method using the growth media listed under C-1. […] The cells were then incubated in an incubator at 37° C., and 5% carbon dioxide. In a parallel plate, the cell vitality was determined at the start of the drug treatment (day 0) using the Cell Titer Glow (CTG) Luminescent Cell Viability Assay (Promega #G7573 and #G7571). To this end, 100 μl of the substance were added per cell batch, the plates were then covered with aluminium foil, shaken on the plate shaker at 180 rpm for 2 minutes, allowed to stand on the laboratory bench for 8 minutes and then measured using a luminometer (Victor X2, Perkin Elmer). The substrate detects the ATP content in the living cells, generating a luminescence signal of which the height is directly proportional to the vitality of the cells. […] From the measured data, the IC^50 of the growth inhibition in comparison to day 0 was calculated using the DRC (dose response curve) analysis spreadsheet with a 4-parameter fit.

[4] = system: Raji: human Burkitt's lymphoma cells, B7H3-negative; experiment: CTG cytotoxicity assay of anti-B7H3 ADCs, Raji; type: cell-based; conditions: 72 h incubation
Protocol: The analysis of the cytotoxic effects of the anti-B7H3 ADCs was carried out with various cell lines:
Raji: human Burkitt's lymphoma cells, DMSZ-ACC-319, standard medium: RPMI 1640; (Biochrom; # FG 1215, with stable glutamine)+10% FCS (Biochrom; # S0415), B7H3-negative.
The cells were cultivated by the standard method as stated by the American Tissue Culture Collection (ATCC) for the cell lines in question.
The cells were cultivated according to the standard method using the growth media listed under C-1. […] In a parallel plate, the cell vitality was determined at the start of the drug treatment (day 0) using the Cell Titer Glow (CTG) Luminescent Cell Viability Assay (Promega #G7573 and #G7571). To this end, 100 μl of the […] were added per cell batch, the plates were then covered with aluminium foil, shaken on the plate shaker at 180 rpm for 2 minutes, allowed to stand on the laboratory bench for 8 minutes and then measured using a luminometer (Victor X2, Perkin Elmer). The substrate detects the ATP content in the living cells, generating a luminescence signal of which the height is directly proportional to the vitality of the cells. […] From the measured data, the IC^50 of the growth inhibition in comparison to day 0 was calculated using the DRC (dose response curve) analysis spreadsheet with a 4-parameter fit. […]

[5] = Homo sapiens, NCI-H292, MTT assay

Row | SMILES | IC50 (NCI-H292; [5]) [nM] | IC50 (KPL4; MTT assay) [nM] | IC50 (NCI-H292; MTT assay) [nM] | Papp (B-A) (Caco-2 cells) [×10⁻⁶ cm/s] | IC50 [2] [nM] | further results
1 | CC(C)(C)[C@H](c1cc(-c2cc(F)ccc2F)cn1Cc1ccccc1)N(CC[C@H](N)C(=O)NC(CCC(=O)O)C(=O)O)C(=O)CO.O=C(O)C(F)(F)F (stereo in doubt) [Example M25, N-{(2S)-2-Amino-4-[{(1R)-1-[1-benzyl-4-(2,5-difluorophenyl)-1H-pyrrol-2-yl]-2,2-dimethylpropyl}(glycoloyl)amino]butanoyl}-L-glutamic acid-trifluoroacetic acid (1:1)] | 500 | – | – | – | – | IC50 (KPL4; KPL4, MTT assay): 500 nM; Papp B→A at 2 h [1]: 0.81 ×10⁻⁶ cm/s
2 | CC(C)(C)[C@H](c1cc(-c2cc(F)ccc2F)cn1Cc1ccccc1)N(CC[C@H](N)C(=O)N[C@H](CNC(=O)CNC(=O)CC(SC[C@H](N)C(=O)O)C(=O)O)C(=O)O)C(=O)CO (stereo partly shown) [Example M3] | – | 90 | 32.1 | 0.14 | 1.52 | Efflux ratio (Caco-2 cells): 1.3
3 | CC(C)(C)[C@H](c1cc(-c2cc(F)ccc2F)cn1Cc1ccccc1)N(CCCN)C(=O)CO [M09, N-(3-Aminopropyl)-N-{(1R)-1-[1-benzyl-4-(2,5-difluorophenyl)-1H-pyrrol-2-yl]-2,2-dimethylpropyl}-2-hydroxyacetamide] | – | – | – | – | – | IC50 [3]: 0.03 nM; IC50 [4]: 0.03 nM
4 | CC(C)(C)[C@H](c1cc(-c2cc(F)ccc2F)cn1Cc1ccccc1)N(CCCN)C(=O)CSC[C@H](NC(=O)CCOCCOCCOCCOCCNC(=O)CCNC(=O)CC(SC[C@H](N)C(=O)O)C(=O)O)C(=O)O (stereo partly shown) [Example M10] | – | 226 | 303 | – | 0.47 | –
5 | CC(C)(C)[C@H](c1cc(-c2cc(F)ccc2F)cn1Cc1ccccc1)N(CC[C@H](N)C(=O)NCCNC(=O)CNC(=O)CC(SC[C@H](N)C(=O)O)C(=O)O)C(=O)CO (stereo partly shown) [Example M2] | – | 163 | 204 | 0.48 | – | –
6 | CC(C)(C)[C@H](c1cc(-c2cc(F)ccc2F)cn1Cc1ccccc1)N(CCCN)C(=O)CSC[C@H](NC(=O)CCOCCOCCOCCOCCNC(=O)CNC(=O)CC(SC[C@@H](N)C(=O)O)C(=O)O)C(=O)O (stereo partly shown) [Example M22] | – | 182 | 28.9 | 0.09 | – | –
7 | CC(C)(C)[C@H](c1cc(-c2cc(F)ccc2F)cn1Cc1ccccc1)N(CC[C@H](N)C(=O)NCCNC(=O)CNC(=O)C[C@@H](SC[C@H](N)C(=O)O)C(=O)O)C(=O)CO (racemic) [Example M26, 4-[(2-{[2-({(2S)-2-Amino-4-[{(1R)-1-[1-benzyl-4-(2,5-difluorophenyl)-1H-pyrrol-2-yl]-2,2-dimethylpropyl}(glycoloyl)amino]butanoyl}amino)ethyl]amino}-2-oxoethyl)amino]-2-{[(2R)-2-amino-2-carboxyethyl]sulfanyl}-4-oxobutanoic acid-trifluoroacetic acid (1:1)] | 63.8 | – | – | – | – | Papp B→A at 2 h [1]: 1.3 ×10⁻⁶ cm/s
8 | CC(C)(C)[C@H](c1cc(-c2cc(F)ccc2F)cn1Cc1ccccc1)N(CC[C@H](N)C(=O)NCCOCCN1C(=O)CC(SC[C@H](N)C(=O)O)C1=O)C(=O)CO (stereo partly drawn) [Example M4, S-(1-{2-[2-({(2S)-2-Amino-4-[{(1R)-1-[1-benzyl-4-(2,5-difluorophenyl)-1H-pyrrol-2-yl]-2,2-dimethylpropyl}(glycoloyl)amino]butanoyl}amino)ethoxy]ethyl}-2,5-dioxopyrrolidin-3-yl)-L-cysteine/trifluoroacetic acid (1:1)] | 44.3 | – | – | – | – | IC50 (KPL4; KPL4, MTT assay): 176 nM
9 | CC(C)(C)[C@H](c1cc(-c2cc(F)ccc2F)cn1Cc1ccccc1)N(CC[C@H](N)C(=O)NCCOCCNC(=O)CC(SC[C@H](N)C(=O)O)C(=O)O)C(=O)CO (stereo partly shown) [Example M5] | – | 222 | 79.4 | 2.03 | 0.457 | Efflux ratio (Caco-2 cells): 26.5
